ChEMBL document CHEMBL2034842, “Synthesis, anti-Candida activity, and cytotoxicity of new (4-(4-iodophenyl)thiazol-2-yl)hydrazine derivatives” (Eur J Med Chem, 2012)
≈ marks a conversion by molar mass, not a printed value.

Key:
Assay type in all cases: functional
Escherichia coli = assay: Antibacterial activity against Escherichia coli after 18 to 22 hrs by […]
Staphylococcus warneri = assay: Antibacterial activity against Staphylococcus warneri after 18 to 22 hrs by […]
Candida albicans = assay: Antifungal activity against 10 strains of Candida albicans after 24 hrs by […]
Enterococcus faecalis = assay: Antibacterial activity against Enterococcus faecalis after 18 to 22 hrs by […]
Proteus vulgaris = assay: Antibacterial activity against Proteus vulgaris after 18 to 22 hrs by […]
Streptococcus pyogenes = assay: Antibacterial activity against Streptococcus pyogenes after 18 to 22 hrs by […]
Nakaseomyces glabratus = assay: Antifungal activity against 4 strains of Candida glabrata after 24 hrs by […]
Klebsiella aerogenes = assay: Antibacterial activity against Enterobacter aerogenes after 18 to 22 hrs by […]
Staphylococcus aureus = assay: Antibacterial activity against Staphylococcus aureus after 18 to 22 hrs by […]
Klebsiella pneumoniae = assay: Antibacterial activity against Klebsiella pneumoniae after 18 to 22 hrs by […]
Candida tropicalis = assay: Antifungal activity against 4 strains of Candida tropicalis after 24 hrs by […]
Candida parapsilosis = assay: Antifungal activity against 4 strains of Candida parapsilosis after 24 hrs by […]; details: Lodderomyces parapsilosis
Pichia kudriavzevii = assay: Antifungal activity against 3 strains of Candida krusei after 24 hrs by […]
[Candida] sake = Antifungal activity against 2 strains of Candida sake after 24 hrs by […]; details: Fermentozyma sake

Row | SMILES | MIC (Escherichia coli) [µg/mL] | MIC (Staphylococcus warneri) [µg/mL] | MIC (Candida albicans) [µg/mL] | MIC (Enterococcus faecalis) [µg/mL] | MIC (Proteus vulgaris) [µg/mL] | MIC (Streptococcus pyogenes) [µg/mL] | MIC (Nakaseomyces glabratus) [µg/mL] | MIC (Klebsiella aerogenes) [µg/mL] | MIC (Staphylococcus aureus) [µg/mL] | MIC (Klebsiella pneumoniae) [µg/mL] | MIC (Candida tropicalis) [µg/mL] | MIC (Candida parapsilosis) [µg/mL] | MIC (Pichia kudriavzevii) [µg/mL] | MIC ([Candida] sake) [µg/mL]
1 | C/C(=N\Nc1nc(-c2ccc(I)cc2)cs1)c1ccccn1 | > 128 | > 128 | 0.25 (≈ 0.595 µM) | > 128 | > 128 | > 128 | 2 (≈ 4.76 µM) | > 128 | 32 (≈ 76.1 µM) | 32 (≈ 76.1 µM) | 0.5 (≈ 1.19 µM) | 2 (≈ 4.76 µM) | 64 (≈ 152 µM) | 64 (≈ 152 µM)
2 | Ic1ccc(-c2csc(N/N=C/c3cccnc3)n2)cc1 | 16 (≈ 39.4 µM) | > 128 | 2 (≈ 4.92 µM) | 32 (≈ 78.8 µM) | > 128 | 32 (≈ 78.8 µM) | 4 (≈ 9.85 µM) | 16 (≈ 39.4 µM) | 32 (≈ 78.8 µM) | > 128 | 2 (≈ 4.92 µM) | 2 (≈ 4.92 µM) | 64 (≈ 158 µM) | 64 (≈ 158 µM)
3 | C/C(=N\Nc1nc(-c2ccc(I)cc2)cs1)c1cccnc1 | 32 (≈ 76.1 µM) | > 128 | 0.25 (≈ 0.595 µM) | 32 (≈ 76.1 µM) | 16 (≈ 38.1 µM) | 32 (≈ 76.1 µM) | 2 (≈ 4.76 µM) | > 128 | > 128 | 32 (≈ 76.1 µM) | 0.5 (≈ 1.19 µM) | 2 (≈ 4.76 µM) | 64 (≈ 152 µM) | 64 (≈ 152 µM)
4 | Ic1ccc(-c2csc(N/N=C/c3ccncc3)n2)cc1 | > 128 | 32 (≈ 78.8 µM) | 0.25 (≈ 0.615 µM) | 2 (≈ 4.92 µM) | > 128 | 2 (≈ 4.92 µM) | 2 (≈ 4.92 µM) | > 128 | 32 (≈ 78.8 µM) | > 128 | 0.5 (≈ 1.23 µM) | 2 (≈ 4.92 µM) | 128 (≈ 315 µM) | 128 (≈ 315 µM)
5 | Ic1ccc(-c2csc(N/N=C/c3c[nH]c4ccccc34)n2)cc1 | > 128 | 32 (≈ 72 µM) | 0.5 (≈ 1.13 µM) | 4 (≈ 9 µM) | > 128 | 4 (≈ 9 µM) | 4 (≈ 9 µM) | > 128 | 32 (≈ 72 µM) | > 128 | 2 (≈ 4.5 µM) | 0.5 (≈ 1.13 µM) | 4 (≈ 9 µM) | 4 (≈ 9 µM)
6 | Ic1ccc(-c2csc(N/N=C/c3ccc4c(c3)OCO4)n2)cc1 | > 128 | 32 (≈ 71.2 µM) | 2 (≈ 4.45 µM) | 32 (≈ 71.2 µM) | > 128 | > 128 | 4 (≈ 8.9 µM) | > 128 | 32 (≈ 71.2 µM) | > 128 | 2 (≈ 4.45 µM) | 2 (≈ 4.45 µM) | 2 (≈ 4.45 µM) | 4 (≈ 8.9 µM)
7 | C/C(=N\Nc1nc(-c2ccc(I)cc2)cs1)c1ccc2ccccc2c1 | 16 (≈ 34.1 µM) | 4 (≈ 8.52 µM) | 2 (≈ 4.26 µM) | 4 (≈ 8.52 µM) | 16 (≈ 34.1 µM) | 8 (≈ 17 µM) | 4 (≈ 8.52 µM) | 16 (≈ 34.1 µM) | 8 (≈ 17 µM) | 16 (≈ 34.1 µM) | 2 (≈ 4.26 µM) | 2 (≈ 4.26 µM) | 64 (≈ 136 µM) | 64 (≈ 136 µM)
8 | C/C(=N\Nc1nc(-c2ccc(I)cc2)cs1)c1cc2ccccc2oc1=O | 16 (≈ 32.8 µM) | 4 (≈ 8.21 µM) | 2 (≈ 4.1 µM) | 8 (≈ 16.4 µM) | > 128 | 4 (≈ 8.21 µM) | 4 (≈ 8.21 µM) | > 128 | 32 (≈ 65.7 µM) | > 128 | 2 (≈ 4.1 µM) | 2 (≈ 4.1 µM) | 2 (≈ 4.1 µM) | 4 (≈ 8.21 µM)
9 | CC(C)(O/N=C(\C(=O)N[C@@H]1C(=O)N2C(C(=O)[O-])=C(C[n+]3ccccc3)CS[C@H]12)c1csc(N)n1)C(=O)O [CEFTAZIDIME] | 4 (≈ 7.32 µM) | 0.5 (≈ 0.915 µM) | – | 0.5 (≈ 0.915 µM) | 2 (≈ 3.66 µM) | 0.5 (≈ 0.915 µM) | – | 2 (≈ 3.66 µM) | 0.5 (≈ 0.915 µM) | 2 (≈ 3.66 µM) | – | – | – | –
10 | OC(Cn1cncn1)(Cn1cncn1)c1ccc(F)cc1F [FLUCONAZOLE] | – | – | 4 (≈ 13.1 µM) | – | – | – | 4 (≈ 13.1 µM) | – | – | – | 4 (≈ 13.1 µM) | 4 (≈ 13.1 µM) | 4 (≈ 13.1 µM) | 4 (≈ 13.1 µM)
11 | COC1=CC(=O)C[C@@H](C)[C@]12Oc1c(Cl)c(OC)cc(OC)c1C2=O [GRISEOFULVIN] | – | – | 8 (≈ 22.7 µM) | – | – | – | 8 (≈ 22.7 µM) | – | – | – | 8 (≈ 22.7 µM) | 8 (≈ 22.7 µM) | 8 (≈ 22.7 µM) | 8 (≈ 22.7 µM)
